These are literature values, as cited in US7423028B2, “Injectable pharmaceutical compositions comprising sodium diclofenac and β-cyclodextrin” (Ibsa Institut Biochemique S.A., priority 2004, dated 2008).

Molecules are shown by their SMILES.

`O=C([O-])Cc1ccccc1Nc1c(Cl)cccc1Cl.[Na+]` [sodium diclofenac, 2-[(2,6-dichlorophenyl)amino]benzeneacetic acid monosodium salt]: the solubility in water entry is “sparingly soluble in water”.
